Data from PubChem BioAssay (NCI).
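Step 1: Grow cells in 96-well plates. Step 2: Expose to compound for 48 hours at 5 concentrations. Step 3: Interpolate endpoints linearly; if unreached, use highest concentration. Abbreviation: GI50, concentration required for 50% inhibition of growth. TGI marks complete inhibition of growth.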

What was measured:
Assay in all cases: NCI anticancer screen, dose series, 48 h
[1] = system: NCI-H226 lung
[2] = system: K-562 leukemia
[3] = system: UO-31 renal
[4] = system: SNB-19 CNS
[5] = system: MALME-3M melanoma
[6] = system: HOP-62 NSCLC
[7] = system: COLO 205 colon
[8] = system: M14 melanoma
[9] = system: HOP-92 NSCLC
[10] = system: MDA-MB-435

CO/N=C(/C)COc1ccc2c(c1)oc(=O)c1cc(OC)ccc12 was tested, and the GI50 [1] was greater than 100 µM, the TGI [1] was greater than 100 µM and the GI50 [2] was greater than 100 µM. The TGI [2] was greater than 100 µM, the GI50 [3] was 73.8 µM and the TGI [3] was greater than 100 µM. For the same compound, the GI50 [4] was greater than 100 µM, the TGI [4] was greater than 100 µM and the GI50 [5] was greater than 100 µM. The TGI [5] was greater than 100 µM, the GI50 [6] was 95.3 µM and the TGI [6] was greater than 100 µM. It also gave a GI50 [7] greater than 100 µM, a TGI [7] greater than 100 µM and a GI50 [8] greater than 100 µM. The TGI [8] was greater than 100 µM, the GI50 [9] was greater than 100 µM and the TGI [9] was greater than 100 µM. For the same compound, the GI50 [10] was greater than 100 µM and the TGI [10] was greater than 100 µM.

COc1cc(/C=C2\CCC/C(=C\c3cc(CN4CCCC4)c(O)c(OC)c3)C2=O)cc(CN2CCCC2)c1O gave a GI50 [1] of 2.57 µM, a TGI [1] of 6.84 µM and a GI50 [2] of 3 µM. The TGI [2] was 16.9 µM, the GI50 [3] was 10.1 µM and the TGI [3] was 21.7 µM. It also gave a GI50 [4] of 8.21 µM, a TGI [4] of 20.8 µM and a GI50 [5] of 2.73 µM. For the same compound, the TGI [5] was 6.41 µM, the GI50 [6] was 2.93 µM and the TGI [6] was 9.35 µM. The GI50 [7] was 1.19 µM, the TGI [7] was 2.76 µM and the GI50 [8] was 2.9 µM. The TGI [8] was 8.63 µM, the GI50 [9] was 2.11 µM and the TGI [9] was 11.8 µM. It also gave a GI50 [10] of 2.75 µM and a TGI [10] of 7.46 µM.

CC[O-].CC[O-].O=C1C=C([O-])C(=O)c2ccccc21.O=C1C=C([O-])C(=O)c2ccccc21.[Ti+4] was tested, and the GI50 [1] was greater than 82.8 µM, the TGI [1] was greater than 100 µM and the GI50 [2] was 69.6 µM. The TGI [2] was greater than 100 µM, the GI50 [3] was greater than 86.1 µM and the TGI [3] was greater than 100 µM. It also gave a GI50 [4] greater than 84.5 µM, a TGI [4] greater than 100 µM and a GI50 [5] of 9.89 µM. The TGI [5] was greater than 100 µM, the GI50 [6] was greater than 100 µM and the TGI [6] was greater than 100 µM. The GI50 [7] was 24 µM, the TGI [7] was greater than 59.8 µM and the GI50 [8] was 8.52 µM. It also gave a TGI [8] greater than 100 µM, a GI50 [9] greater than 100 µM and a TGI [9] greater than 100 µM.

CC(=O)OC(COc1ccc2c(c1)[n+]([O-])nc(N)[n+]2[O-])CN1CCCCC1 (stereo not drawn) showed a TGI [1] of 54 µM, a TGI [2] of 38.5 µM and a TGI [3] greater than 100 µM. It also gave a TGI [4] greater than 100 µM, a TGI [5] of 24.2 µM and a TGI [7] of 30.5 µM. The TGI [8] was 38.7 µM, the TGI [9] was greater than 100 µM and the TGI [10] was greater than 100 µM.

COc1ccc2nc3cc([N+](=O)[O-])ccc3c(NCCO)c2c1 showed a GI50 [1] of 3.67 µM, a TGI [1] of 14.7 µM and a GI50 [2] of 1.22 µM. The TGI [2] was 3.85 µM, the GI50 [3] was 4.75 µM and the TGI [3] was 19 µM. For the same compound, the GI50 [4] was 2.96 µM, the TGI [4] was 11.5 µM and the GI50 [6] was 2.07 µM. It also gave a TGI [6] of 5.19 µM, a GI50 [7] of 3.31 µM and a TGI [7] of 17.4 µM. It also gave a GI50 [8] of 1.89 µM, a TGI [8] of 4.28 µM and a GI50 [9] of 1.86 µM. The TGI [9] was 7.02 µM, the GI50 [10] was 2.12 µM and the TGI [10] was 5.09 µM.

In the case of CC1=C2CC[C@@]3(C)C(=CCC3O)C2(C)CCC1=O (stereo partly drawn), the TGI [1] is reported as greater than 100 µM, the TGI [3] is reported as greater than 100 µM and the TGI [4] is reported as greater than 100 µM. For the same compound, the TGI [5] was greater than 100 µM, the TGI [6] was greater than 100 µM and the TGI [7] was greater than 100 µM. It also gave a TGI [8] greater than 100 µM and a TGI [9] greater than 100 µM.

CC(=O)Oc1ccc2c(=O)c(C(C)=O)coc2c1 was tested, and the TGI [1] was greater than 100 µM, the TGI [2] was greater than 100 µM and the TGI [3] was greater than 100 µM. It also gave a TGI [4] greater than 100 µM, a TGI [6] greater than 100 µM and a TGI [7] greater than 100 µM. It also gave a TGI [8] greater than 100 µM and a TGI [9] greater than 100 µM.

Nc1nc(N)c2cc(S(=O)(=O)c3ccc4ccccc4c3)ccc2n1 showed a GI50 [1] of 10.8 µM, a TGI [1] greater than 100 µM and a TGI [2] greater than 100 µM. It also gave a TGI [4] of 63.5 µM, a TGI [5] greater than 100 µM and a TGI [6] of 30.3 µM. For the same compound, the GI50 [7] was 6.37 µM, the TGI [7] was greater than 100 µM and the GI50 [8] was 2.23 µM. For the same compound, the TGI [8] was greater than 100 µM, the TGI [9] was 34.8 µM and the TGI [10] was greater than 100 µM.
